The text below walks through data of patent US20260092074A1, “Annelated Pyridines as Steroidogenesis Inhibitors, Preparation Method and Use Thereof” (Guangzhou Vinnocent Pharmaceutical Limited, priority 2022, published 2026).

pIC50: −log10 of the molar value.

For assay [1], the target named is T1, human CYP11B1 (Homo sapiens, UniProt P15538).
T1 construct: expressed in transfected cells
T1 sequence (P15538 25-503): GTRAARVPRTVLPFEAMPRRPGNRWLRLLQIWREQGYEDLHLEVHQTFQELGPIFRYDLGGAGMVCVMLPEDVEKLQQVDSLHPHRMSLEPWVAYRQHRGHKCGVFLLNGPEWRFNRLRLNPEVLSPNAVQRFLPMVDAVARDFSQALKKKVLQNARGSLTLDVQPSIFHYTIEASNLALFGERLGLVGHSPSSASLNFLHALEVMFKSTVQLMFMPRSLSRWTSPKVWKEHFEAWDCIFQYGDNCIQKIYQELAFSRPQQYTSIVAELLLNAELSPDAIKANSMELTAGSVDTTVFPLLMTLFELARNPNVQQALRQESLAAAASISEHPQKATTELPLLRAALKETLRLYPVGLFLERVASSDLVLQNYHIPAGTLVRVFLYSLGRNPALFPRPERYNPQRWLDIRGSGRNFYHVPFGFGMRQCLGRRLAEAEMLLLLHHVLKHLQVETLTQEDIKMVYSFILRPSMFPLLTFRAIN
Nature of the assay: Inhibition of hCYP11B1 in transfected V79 cells. In kind it is cell-based. As to conditions: hamster V79 cells expressing human CYP11B1; substrate 11-deoxycortisol 200 nM. An outline of the steps:
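V79 hamster cells stably expressing human CYP11B1 and rat NADPH-P450 reductase were preincubated with compounds for 2 h. 11-Deoxycortisol (200 nM) was then added as substrate for 30 min before ethyl acetate quench. Substrate and product were quantified by LC-MS/MS or HPLC at 260 nm, and IC50 was derived from percent inhibition.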

Assay [2] deals with T2, human CYP11B2 (Homo sapiens, UniProt P19099).
T2 construct: expressed in transfected cells
T2 sequence (P19099 25-503): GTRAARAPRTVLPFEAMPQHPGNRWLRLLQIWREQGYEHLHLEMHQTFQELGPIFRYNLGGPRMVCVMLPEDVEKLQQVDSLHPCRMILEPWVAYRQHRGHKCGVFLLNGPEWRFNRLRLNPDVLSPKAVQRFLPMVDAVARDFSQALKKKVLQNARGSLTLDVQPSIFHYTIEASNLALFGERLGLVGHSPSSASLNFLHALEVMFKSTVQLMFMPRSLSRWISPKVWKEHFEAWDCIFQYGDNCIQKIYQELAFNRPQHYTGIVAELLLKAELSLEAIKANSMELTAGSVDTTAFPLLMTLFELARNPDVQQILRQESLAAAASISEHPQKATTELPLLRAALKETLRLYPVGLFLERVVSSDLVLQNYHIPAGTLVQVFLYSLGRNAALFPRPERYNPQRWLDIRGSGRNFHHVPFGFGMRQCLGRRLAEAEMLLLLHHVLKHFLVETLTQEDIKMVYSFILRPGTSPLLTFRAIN
The experiment in a line: Inhibition of hCYP11B2 in transfected V79 cells. Format: cell-based. The following applies: hamster V79 cells expressing human CYP11B2; substrate 11-deoxycorticosterone 200 nM. The procedure, abridged: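 Hamster V79 cells stably co-expressing human CYP11B2 and rat NADPH-P450 reductase were pre-incubated with compounds for 2 hours, then given 200 nM 11-deoxycorticosterone for 30 minutes before ethyl acetate quench. Substrate and product were quantified by LC-MS/MS or HPLC at 260 nm, and IC50 was derived from percent inhibition.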

Usually pIC50 stands for −log10 of the IC50, conventionally taken in molar units. Low values mean a large IC50, high ones a small IC50. As for `N#CC1CN(S(=O)(=O)N2CCSc3c(-c4cc5cc(Cl)ccc5o4)cncc32)C1` [S101, 1-((8-(5-Chlorobenzofuran-2-yl)-2,3-dihydro-4H-pyrido[4,3-b][1,4]thiazin-4-yl)sulfonyl) azetidine-3-carbonitrile], the negative-log IC50 (pIC50) is 5.57 in assay [1] and 7.60 in assay [2].
On the same counts, the results for `O=S(=O)(N1CCn2cnnc2C1)N1CCSc2c(-c3cc4cc(Cl)ccc4o3)cncc21` [S102, 8-(5-Chlorobenzofuran-2-yl)-4-((5,6-dihydro-[1,2,4]triazolo[4,3-a]pyrazin-7 (8H)-yl)sulfonyl)-3,4-dihydro-2H-pyrido[4,3-b][1,4]thiazine] are 5.43 and 7.44.
Regarding `O=S(=O)(C1CN(C2COC2)C1)N1CCSc2c(-c3cc4cc(Cl)ccc4o3)cncc21` [S103, 8-(5-Chlorobenzofuran-2-yl)-4-((1-(oxetan-3-yl)azetidin-3-yl)sulfonyl)-3,4-dihydro-2H-pyrido[4,3-b][1,4]thiazine], the pIC50 in assay [1] was 6.02; in assay [2], 8.30.
